Data from patent US20040043403A1, “Process for determining the biological activity of epidermal growth factor receptor tyrosine kinase inhibitors” (priority 2000, published 2004).

How the values were obtained:
Assay type in all cases: cell-based, human
[1] = tested on: MDA-MB468; test: Real time RT-PCR gene expression in MDA-MB468 cells; conditions: MDA-MB468, 3 μM, 24 h; relative to DMSO-treated NCI-H520 calibrator
Procedure: (§1) 20 million tissue culture cells (about 80% confluent) or 200 million WBCs are incubated for 2 or 24 h in culture medium containing 3 μM of an EGFR tyrosine kinase inhibitor or 0.03% DMSO. Total RNA from cell pellet is isolated using the RNeasy kit (Qiagen). mRNA is isolated using the oligotex mRNA purification kit (Qiagen). The quality of the obtained mRNA is tested by real time RT-PCR using beta-Actin primers (PE Applied Biosystems) with an amplicon size of 300 base pairs (bp). The total RNA is used as a reference to calculate the amount of mRNA-enrichment in the oligotex purified samples. The primers and probes are designed from mRNA sequences within the coding region or in the 3′ untranslated region (Table 2). For real time RT-PCR, RNA concentrations between 1 and 50 ng/reaction are used to obtain signals between 15-35 cycles. For each RNA preparation RT-PCR reactions are performed with and without reverse transcriptase to check for genomic DNA contamination. In all RNA samples tested, genomic DNA contamination is less than 1%. To normalize for variability in the initial concentration and quality of the total RNA, Glyceraldehyde-3-phosphate dehydrogenase (GAPDH) is used as an endogenous reference in all quantification experiments. For RT-PCR a one step, two-enzyme system is chosen. The TaqMan PCR Core Reagent Kit (PE #N808-0228) plus the reverse transcriptase MuLV (PE Biosystems # N808-0018) and RNase inhibitor (Roche Diagnostics # 799 025) are mixed as described in the manufacturers protocol. Triplicate measurements are done for target and for reference reactions. […] RT-PCR reactions are done with RNA concentrations of 2.5, 5, 10, 20, 40 and 80 ng per reaction. […] The ΔCT value is determined by subtracting the average reference CT values from the average target CT values of the three measurements. Relative quantification is performed in triplicates, reference and target, using the RT-PCR protocol described above. […] Expression levels for the three genes, calculated relative to NCI-H520, show big differences between the various cell types (Table 5). […]

[2] = tested on: NCI-H520; test: Real time RT-PCR gene expression in NCI-H520 cells; conditions: NCI-H520, 3 μM, 24 h; relative to DMSO-treated NCI-H520 calibrator
Procedure: as §1

[3] = tested on: NCI-H596; test: Real time RT-PCR gene expression in NCI-H596 cells; conditions: NCI-H596, 3 μM, 24 h; relative to DMSO-treated NCI-H520 calibrator
Procedure: as §1

[4] = tested on: NCI-H596; test: Western blot of clusterin induction in NCI-H596 cells; conditions: NCI-H596 cells (moderate levels of EGFR), 300 nM, 24 h, vs 0.03% DMSO
Procedure: An EGFR tyrosine kinase inhibitor is dissolved in DMSO to obtain a 10 mM stock solution. The stock solution is further diluted in culture medium to final concentrations of 10 nM to 3 μM. 3.5 million cells/100 mm dish/12 ml culture medium are incubated for 24 h in 5% CO2 at 37° C. The medium is replaced with medium containing the EGFR tyrosine kinase inhibitor or DMSO. Cells are incubated for 4 to 32 h. The frozen pellets are lysed in 500 μl of lysis buffer (50 mM Tris-HCl pH 7.5, 1% Sodium Dodecyl Sulfate (SDS)). To shear genomic DNA, the cell lysates are processed in a FastPrep instrument for 20 sec at a speed rating of 4, using the green […] tubes (Bio101#6040-6010). Protein concentrations are determined according to the PIERCE-method (BCA Protein Assay, Reagent A and B). Protein concentration of lysates is adjusted to 1 μg/μl with lysis buffer. 4 parts of cell lysates are mixed with 1 part of 5 fold concentrated Laemmli buffer, the lysates are stored at -20° C. 40 μl of cell lysate is heated for 3 min to 95° C. and directly loaded on to 10% or 15% SDS-PAGE gels. The gels are run at 130 V for 90 min under standard conditions. The separated proteins are semi-dry blotted on to a PVDF membrane (Immobilon-P, Millipore #IPVH 202 00) for 70 min with 45 mA per blot. […]

## C[C@@H](Nc1ncnc2[nH]c(-c3ccc(O)cc3)cc12)c1ccccc1 [COMPOUND A, (R)-6-(4-hydroxy-phenyl)-4-[(1-phenyl-ethyl)-amino]-7H-pyrrolo[2,3-d]pyrimidine]
[1]
  Relative Clusterin expression: 32.60 n-fold
  Relative TRAIL expression: 2.89 n-fold
  Relative VAC-beta expression: 26.60 n-fold
[2]
  Relative Clusterin expression: 0.61 n-fold
  Relative TRAIL expression: 0.39 n-fold
  Relative VAC-beta expression: 0.75 n-fold
[3]
  Relative Clusterin expression: 44.12 n-fold
  Relative TRAIL expression: 81.76 n-fold
  Relative VAC-beta expression: 102.30 n-fold
[4]
  Clusterin induction, Western blot (FIG. 4): no significant clusterin induction
